# In patent US11723890B2, “Methods of treatment using an mTORC1 modulator” (Navitor Pharmaceuticals, Inc., priority 2019, dated 2023):
# Tests used:
# cynomolgus monkey [1] = test: Single oral dose toxicology study in cynomolgus monkey; type: in vivo
# Method: Nonclinical toxicology studies have been performed with compound A in the rat and cynomolgus monkey. Adverse effects were not observed after single oral doses of up to 500 mg/kg in rat and up to 2000 mg/kg in cynomolgus monkey.
# [2] = 14-day Q3D oral toxicology study in cynomolgus monkeys; details: cynomolgus monkey, in vivo; cynomolgus monkeys; 160, 500 or 2000 mg/kg PO Q3D for 14 days (5 doses); read-out: no-observed-adverse-effect level (NOAEL)
# Method: (§1) In cynomolgus monkeys administered 160, 500, or 2000 mg/kg PO Q3D for 14 days (5 doses total), the NOAEL was 160 mg/kg.
# (§2) Precautions related to cardiovascular safety in this clinical study included frequent measurement of vital signs (e.g., blood pressure, pulse, and body temperature) and frequent electrocardiograms (ECGs).
# cynomolgus monkey [3] = test: as above; details: in vivo, po, 2000 mg/kg
# Method: as §1, §2
# cynomolgus monkey [4] = test: Cardiovascular study in cynomolgus monkeys; type: in vivo
# [5] = tested on: rodent models of stress-induced depressive behavior; test: Preclinical rodent models of stress-induced depressive behavior; type: in vivo; details: head-to-head with ketamine
# Description: (§3) Compound A [(S)-2-amino-5,5-difluoro-4,4-dimethylpentanoic acid] is a novel, orally bioavailable, specific, small molecule that activates mTORC1 pathway signaling in the brain, including those centers responsible for mood.
# [6] = tested on: nonhuman primate model of anxiolytic/depressive behavioral responses; test: Nonhuman primate model of anxiolytic/depressive behavioral responses; type: in vivo; details: versus ketamine
# Description: as §3
# [7] = Example 2: single-dose pharmacokinetics in plasma and CSF; type: in vivo, human; details: healthy males, single oral 2400 mg
# Method: Pharmacokinetics Endpoints: The following PK parameters for compound A were determined in serum and CSF, as appropriate: • Cmax: Maximum compound A concentration determined directly from the concentration-time profile • Tmax: Time of maximum compound A concentration determined directly from the concentration-time profile • AUClast: Area under the concentration-time curve from pre-dose (time 0) to the time of the last quantifiable concentration (tlast) calculated using the linear-log trapezoidal rule • AUCinf: Area under the concentration-time curve from pre-dose (time 0) extrapolated to infinite time (AUClast+Clast/λz) calculated using the linear-log trapezoidal rule • AUC% extrap: Percentage of AUCinf that is due to extrapolation beyond tlast • λz: The terminal elimination rate constant determined by selection of at least 3 data points on the terminal phase of the concentration-time curve. • t1/2: Terminal elimination half-life calculated as: ln 2/λz • CL/F: Apparent body clearance calculated as: Dose/AUCinf • Vz/F: Apparent volume of distribution calculated as: Dose/(AUCinf*λz) • MRT: Mean residence time (of the unchanged drug in the systemic circulation) as: AUMC/AUC • RA (AUC): Accumulation CSF/plasma ratio calculated as the ratios of the AUCinf,ss at steady state and AUCτ,sd after single dosing calculated as: AUCτ,ss/AUCτ,sd • RA (Cmax): Accumulation CSF/plasma ratio calculated as ratio of Cmax,ss at steady state and Cmax,sd after single dosing calculated as: Cmax,ss/Cmax,sd • CSF compound A concentrations over time and the ratio compared with time-matched plasma concentrations were also evaluated Overall Study Design: […]
# Pharmacokinetic, Metabolomic, and Proteomic Variables: Blood and CSF samples for the PK, metabolomics, and proteomic analysis of compound A were collected at various time points and were processed and analyzed by a validated method for determining concentrations of compound A.
smiles,measurement,setting,value
"CC(C)(C[C@H](N)C(=O)O)C(F)F [Compound A, (S)-2-amino-5,5-difluoro-4,4-dimethylpentanoic acid]",single oral dose up to which adverse effects were not observed,cynomolgus monkey [1],up to 2000 mg/kg
same,NOAEL at 14 days,[2],160 mg/kg
same,adverse effects at 2000 mg/kg,cynomolgus monkey [3],"dehydration in one animal, likely secondary to vomiting, and increased aspartate aminotransferase (AST) in one animal"
same,cardiovascular findings at ≥160 mg/kg,cynomolgus monkey [4]; single oral dose ≥160 mg/kg,decreased heart rate and body temperature
same,cardiovascular finding at higher dosage levels,cynomolgus monkey [4]; single oral dose ≥500 mg/kg,Increased blood pressure
same,adverse effects in rodent models,[5],without producing significant adverse effects
same,antidepressant effects,[5],rapid antidepressant effects comparable to those of ketamine
same,pharmacological activity,[6],comparable to that of ketamine
same,uptake into circulation and brain exposure,[7],rapid uptake of compound A into circulation with rapid brain exposure
same,human CSF levels,[7]; FIG. 8,consistent with rodent levels at the effective dose
same,half-life,"[7]; male, human, in vivo",600 to 780 min
